Assay results from patent US12550923B2, “Allulose syrups” (Tate & Lyle Solutions USA LLC, priority 2015, dated 2026).

Test: Crystallization stability of seeded allulose syrups
Type: physicochemical
Settings: 25° C.
Method: Allulose syrups were prepared at 50, 60, 71, 77, and 85% DS and were equilibrated at 25° C., 15° C. and 4° C. These samples were seeded with ˜0.1% crystalline allulose and crystallization was monitored visually and by change in dry solids of the syrup fraction after 1 month of storage.
A change in DS greater than 0 indicates crystallization, and a larger number indicates a larger amount of crystallization. […] Therefore, for storage of a crystallization stable syrup at ambient and reduced temperatures, 77% solids or less is desirable. For cool (<25° C.) temperatures, 71% solids or less is more desirable.

Compound: O=C(CO)C(O)C(O)C(O)CO (stereo not shown) [allulose]
- limit of solubility (DS): ~77%
